Reference: ChEMBL document CHEMBL5252615, “Synthesis, biological activity and mechanism of action of novel allosecurinine derivatives as potential antitumor agents” (Bioorg Med Chem, 2023)
Activity calls are given as the source filed them. The calls are words filed in the database; no cut-off is given here.

What was measured:
Type in all cases: functional, cell-based
[1] = test system: NB-4; assay: Antitumor activity against human NB4 cells assessed as reduction in cell viability incubated for 72 hrs; settings: NB-4, 72 h
[2] = test system: HL-60; assay: Antitumor activity against human HL-60 cells assessed as reduction in cell viability incubated for 72 hrs; settings: HL-60, 72 h
[3] = test system: THP-1; assay: Antitumor activity against human THP-1 cells assessed as reduction in cell viability incubated for 72 hrs; settings: THP-1, 72 h
[4] = test system: KG-1; assay: Antitumor activity against human KG-1 cells assessed as reduction in cell viability incubated for 72 hrs; settings: KG-1, 72 h
[5] = test system: U-937; assay: Antitumor activity against human U-937 cells assessed as reduction in cell viability incubated for 72 hrs; settings: U-937, 72 h
[6] = test system: K562; assay: Antitumor activity against human K562 cells assessed as reduction in cell viability incubated for 72 hrs; settings: K562, 72 h
[7] = test system: SU-DHL-2; assay: Antitumor activity against human SUDHL2 cells assessed as reduction in cell viability incubated for 72 hrs; settings: SU-DHL-2, 72 h
[8] = test system: SK-OV-3; assay: Antitumor activity against human SK-OV-3 cells assessed as reduction in cell viability incubated for 72 hrs; settings: SK-OV-3, 72 h
[9] = test system: SK-OV-3; assay: Antitumor activity against taxol-resistant human SK-OV-3 cells assessed as reduction in cell viability incubated for 72 hrs; settings: SK-OV-3, 72 h
[10] = test system: NB-4; assay: Induction of differentiation of human NB4 cells assessed as increase in CD11b expression at 0.5 uM measured after 72 hrs by flow cytometric analysis
[11] = test system: HL-60; assay: Induction of differentiation of human HL-60 cells assessed as increase in CD11b expression at 0.5 uM measured after 72 hrs by flow cytometric analysis
[12] = test system: THP-1; assay: Induction of differentiation of human THP1 cells assessed as increase in CD11b expression at 0.5 uM measured after 72 hrs by flow cytometric analysis
[13] = test system: KG-1; assay: Induction of differentiation of human KG-1 cells assessed as increase in CD11b expression at 0.5 uM measured after 72 hrs by flow cytometric analysis
[14] = test system: U-937; assay: Induction of differentiation of human U-937 cells assessed as increase in CD11b expression at 0.5 uM measured after 72 hrs by flow cytometric analysis

Row | SMILES | IC50 [1] [µM] | IC50 [2] [µM] | IC50 [3] [µM] | IC50 [4] [µM] | IC50 [5] [µM] | IC50 [6] [µM] | IC50 [7] [µM] | IC50 [8] [µM] | IC50 [9] [µM] | Activity [10] | Activity [11] | Activity [12] | Activity [13] | Activity [14]
1 | O=C1O[C@@]23C[C@@H](C=CC2=C1C(O)c1ccccc1Br)N1CCCC[C@H]13 (stereo not given in full) | 4.67 | 3.52 | 15.5 | 4.11 | 4.38 | 1.68 | 20.7 | 7.76 | 5.59 | – | – | – | – | –
2 | O=C1O[C@@]23C[C@@H](C=CC2=C1C(O)c1cccc([N+](=O)[O-])c1)N1CCCC[C@H]13 (stereo not given in full) | 3.01 | 6.2 | 12 | 1.98 | 4.64 | 2.69 | 9.28 | 3.11 | 3.5 | Active | Active | Active | Active | Active
3 | O=C1O[C@@]23C[C@@H](C=CC2=C1C(O)c1csc2ccccc12)N1CCCC[C@H]13 (stereo not given in full) | 4.45 | 20.4 | 15.6 | 6.14 | 29.6 | 2.37 | 27.9 | 22.2 | 20.7 | – | – | – | – | –
4 | CS(=O)(=O)c1ccc(C(O)C2=C3C=C[C@@H]4C[C@@]3(OC2=O)[C@@H]2CCCCN42)cc1 (stereo not given in full) | 12.8 | 17.2 | 25.9 | 4.84 | 27.3 | 17.7 | 20.8 | 11.6 | 12.5 | – | – | – | – | –
5 | O=C1C=C2C=C[C@H]3C[C@@]2(O1)[C@@H]1CCCCN13 | 20.4 | 21.2 | > 50 | > 50 | 14.9 | 38.1 | > 50 | 35.2 | 36.4 | – | – | – | – | –
6 | O=C1O[C@@]23C[C@@H](C=CC2=C1C(O)c1ccc(-c2ccccc2)cc1)N1CCCC[C@H]13 (stereo not given in full) | 3.32 | 6.76 | 9.15 | 4.77 | 3.63 | 3.15 | 9.59 | 14.8 | 13.8 | – | – | – | – | –
7 | O=C1O[C@@]23C[C@@H](C=CC2=C1C(O)c1ccc(Cl)cc1)N1CCCC[C@H]13 (stereo not given in full) | 10.1 | 11.8 | 14.8 | 3.95 | 7.56 | 4.47 | 18.3 | 9.94 | 11 | – | – | – | – | –
8 | CC(C)(C)c1ccc(C(O)C2=C3C=C[C@@H]4C[C@@]3(OC2=O)[C@@H]2CCCCN42)cc1 (stereo not given in full) | 15.9 | 16 | 16.1 | 5.77 | 16.7 | 20.1 | 20.9 | 14.9 | 17 | – | – | – | – | –
9 | Cc1ccc(C(O)C2=C3C=C[C@@H]4C[C@@]3(OC2=O)[C@@H]2CCCCN42)cc1 (stereo not given in full) | 13.2 | 11.5 | 12.7 | 5.58 | 11.1 | 8.35 | 19.4 | 7.58 | 8.42 | – | – | – | – | –
10 | O=C1O[C@@]23C[C@@H](C=CC2=C1C(O)c1ccc([N+](=O)[O-])cc1[N+](=O)[O-])N1CCCC[C@H]13 (stereo not given in full) | 12 | 10.8 | 18 | 3.08 | 6.36 | 10.8 | 18.3 | 7.86 | 8.89 | – | – | – | – | –
11 | O=C1O[C@@]23C[C@@H](C=CC2=C1C(O)c1ccc(F)cc1F)N1CCCC[C@H]13 (stereo not given in full) | 5.8 | 7.66 | 15.8 | 2.21 | 6.99 | 10.3 | 15.3 | 14.7 | 14.9 | – | – | – | – | –
12 | CC[C@@]1(O)C(=O)OCc2c1cc1n(c2=O)Cc2cc3ccccc3nc2-1 [CAMPTOTHECIN] | 2.01 | 0.91 | 1.89 | 2.31 | 1.81 | 0.58 | 0.94 | – | 4.86 | – | – | – | – | –
13 | Cc1ccccc1C(O)C1=C2C=C[C@@H]3C[C@@]2(OC1=O)[C@@H]1CCCCN31 (stereo not given in full) | 5.01 | 13.4 | 26.9 | 10 | 8.04 | 12.7 | 27.2 | 20.1 | 19.3 | – | – | – | – | –
14 | O=C1O[C@@]23C[C@@H](C=CC2=C1C(O)c1ccc(F)cc1)N1CCCC[C@H]13 (stereo not given in full) | 10.3 | 15.2 | 12.4 | 2.12 | 16.6 | 17.3 | 15.3 | 6.84 | 8.32 | – | – | – | – | –
15 | O=C1O[C@@]23C[C@@H](C=CC2=C1C(O)c1cccc(F)c1)N1CCCC[C@H]13 (stereo not given in full) | 4.01 | 8.73 | 12 | 3.98 | 8.73 | 4.45 | 16 | 3.42 | 6.52 | – | – | – | – | –
16 | O=C1O[C@@]23C[C@@H](C=CC2=C1C(O)c1ccccc1)N1CCCC[C@H]13 (stereo not given in full) | 13.3 | 14.7 | 20.7 | 9.12 | 9.23 | 16.9 | 19 | 14.5 | 15.1 | – | – | – | – | –
17 | N#Cc1cccc(C(O)C2=C3C=C[C@@H]4C[C@@]3(OC2=O)[C@@H]2CCCCN42)c1 (stereo not given in full) | 7.7 | 9.98 | 16.1 | 1.95 | 1.79 | 6.02 | 20.1 | 6.68 | 7.61 | – | – | – | – | –
18 | O=C1O[C@@]23C[C@@H](C=CC2=C1C(O)c1ccc(C(F)(F)F)cc1)N1CCCC[C@H]13 (stereo not given in full) | 1.99 | 4.17 | 6.16 | 1.83 | 3.68 | 6.06 | 12.1 | 13.5 | 14.8 | – | – | – | – | –
19 | O=C1O[C@@]23C[C@@H](C=CC2=C1C(O)c1ccccc1F)N1CCCC[C@H]13 (stereo not given in full) | 10.9 | 9.47 | 3.34 | 3.54 | 4.22 | 7.14 | 20.3 | 10.2 | 12.8 | – | – | – | – | –
20 | N#Cc1ccc(C(O)C2=C3C=C[C@@H]4C[C@@]3(OC2=O)[C@@H]2CCCCN42)cc1 (stereo not given in full) | 3.84 | 7.16 | 15.6 | 2.57 | 2.2 | 3.11 | 19.3 | 4.18 | 4.54 | – | – | – | – | –
21 | O=C1O[C@@]23CC(C=CC2=C1C(O)c1ccccc1[N+](=O)[O-])N1CCCC[C@H]13 (single isomer, unassigned) | 3.3 | 9.2 | 10.7 | 4.18 | 8.05 | 3.7 | 16.1 | 10.2 | 9.91 | – | – | – | – | –
22 | O=C1O[C@@]23C[C@@H](C=CC2=C1C(O)c1ccccc1Cl)N1CCCC[C@H]13 (stereo not given in full) | 3.18 | 7.42 | 19.2 | 3.8 | 3.81 | 5.37 | 16.4 | 4.52 | 5.37 | – | – | – | – | –
23 | O=C1O[C@@]23C[C@@H](C=CC2=C1C(O)c1nc2ccccc2s1)N1CCCC[C@H]13 (stereo not given in full) | – | – | 16.4 | – | 13.8 | – | 18 | 21 | – | – | – | – | – | –
24 | O=C1O[C@@]23C[C@@H](C=CC2=C1C(O)c1ccc(Br)cc1)N1CCCC[C@H]13 (stereo not given in full) | 6.18 | 9.92 | 15.5 | 2.27 | 10.8 | 2.58 | 15.2 | 14.2 | 12.5 | – | – | – | – | –
